Results as given in article PMC9250890 (Cell Reports, 2022).
Entries after “also recorded” stand apart in the source; their conditions may differ. Where a name gives a salt, the structure may show the parent alone. Read-outs that look alike come from different tables or passages of the source.

Tests used:
human ANO6 = biological target: T1, human ANO6 (Homo sapiens, UniProt Q4KMQ2); assay: YFP fluorescence quenching-based anion channel assay, FRT-ANO6 cells; assay type: cell-based
T1 sequence (Q4KMQ2 1-931 isoform Q4KMQ2-2): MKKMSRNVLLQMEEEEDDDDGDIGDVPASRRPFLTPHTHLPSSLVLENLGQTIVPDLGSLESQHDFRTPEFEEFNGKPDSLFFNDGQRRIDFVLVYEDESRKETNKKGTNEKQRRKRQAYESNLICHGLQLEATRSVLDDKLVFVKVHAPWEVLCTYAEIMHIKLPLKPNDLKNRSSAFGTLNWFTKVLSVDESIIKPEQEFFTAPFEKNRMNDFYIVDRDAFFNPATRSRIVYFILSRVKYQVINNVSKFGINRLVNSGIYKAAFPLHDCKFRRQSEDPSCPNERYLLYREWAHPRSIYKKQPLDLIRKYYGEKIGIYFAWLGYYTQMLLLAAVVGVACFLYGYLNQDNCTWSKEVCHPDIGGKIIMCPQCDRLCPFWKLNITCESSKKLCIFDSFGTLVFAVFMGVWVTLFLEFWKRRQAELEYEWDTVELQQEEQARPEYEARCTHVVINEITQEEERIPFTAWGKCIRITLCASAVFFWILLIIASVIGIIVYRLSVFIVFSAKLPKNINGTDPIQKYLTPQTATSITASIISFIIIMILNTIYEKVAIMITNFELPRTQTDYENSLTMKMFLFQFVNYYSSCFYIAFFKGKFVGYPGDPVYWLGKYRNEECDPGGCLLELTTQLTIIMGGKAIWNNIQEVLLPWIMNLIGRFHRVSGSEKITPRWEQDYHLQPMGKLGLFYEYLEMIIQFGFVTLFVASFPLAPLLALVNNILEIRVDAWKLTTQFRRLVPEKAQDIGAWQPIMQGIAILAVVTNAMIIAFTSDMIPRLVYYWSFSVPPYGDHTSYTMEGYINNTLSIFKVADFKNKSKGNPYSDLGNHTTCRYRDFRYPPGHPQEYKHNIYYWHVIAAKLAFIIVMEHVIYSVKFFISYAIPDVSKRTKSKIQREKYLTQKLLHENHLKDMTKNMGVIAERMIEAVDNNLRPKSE

human ANO2 = biological target: T2, human ANO2 (Homo sapiens, UniProt Q9NQ90); assay: YFP quenching anion channel assay, FRT-ANO2 cells; assay type: cell-based
T2 sequence (Q9NQ90 1-998): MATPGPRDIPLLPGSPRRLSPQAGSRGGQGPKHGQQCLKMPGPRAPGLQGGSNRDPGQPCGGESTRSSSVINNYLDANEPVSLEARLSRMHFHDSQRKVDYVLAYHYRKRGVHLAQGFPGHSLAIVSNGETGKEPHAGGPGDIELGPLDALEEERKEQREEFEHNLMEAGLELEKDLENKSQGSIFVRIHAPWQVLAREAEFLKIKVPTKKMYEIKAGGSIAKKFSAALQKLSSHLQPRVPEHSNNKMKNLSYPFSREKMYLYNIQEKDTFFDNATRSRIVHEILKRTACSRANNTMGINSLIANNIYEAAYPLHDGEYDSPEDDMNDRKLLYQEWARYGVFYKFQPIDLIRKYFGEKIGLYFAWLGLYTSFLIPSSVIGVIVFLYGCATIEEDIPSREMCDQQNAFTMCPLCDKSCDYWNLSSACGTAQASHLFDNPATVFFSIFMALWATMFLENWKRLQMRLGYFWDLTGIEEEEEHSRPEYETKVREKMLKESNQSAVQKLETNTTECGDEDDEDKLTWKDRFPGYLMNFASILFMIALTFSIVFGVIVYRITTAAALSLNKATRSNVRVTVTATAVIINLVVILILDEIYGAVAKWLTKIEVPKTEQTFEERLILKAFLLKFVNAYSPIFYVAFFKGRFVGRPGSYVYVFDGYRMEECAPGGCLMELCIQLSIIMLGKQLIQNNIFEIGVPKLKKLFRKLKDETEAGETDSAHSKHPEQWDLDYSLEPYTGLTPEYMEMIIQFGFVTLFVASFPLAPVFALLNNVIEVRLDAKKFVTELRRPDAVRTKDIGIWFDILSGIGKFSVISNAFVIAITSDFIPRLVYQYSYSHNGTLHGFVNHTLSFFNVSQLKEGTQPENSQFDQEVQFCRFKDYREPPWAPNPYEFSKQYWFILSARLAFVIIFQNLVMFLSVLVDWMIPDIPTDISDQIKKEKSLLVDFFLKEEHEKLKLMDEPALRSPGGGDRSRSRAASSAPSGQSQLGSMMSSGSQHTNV

ANO6 (TMEM16F) = biological target: T3, ANO6 (TMEM16F) (Homo sapiens, UniProt Q4KMQ2); assay: Whole-cell patch clamp of ANO6 currents in HEK 293T-ANO6 cells; assay type: cell-based
T3 sequence (Q4KMQ2 1-931 isoform Q4KMQ2-2): T1 sequence (Q4KMQ2 1-931 isoform Q4KMQ2-2)

[1] = biological target: T4, ANO6 phospholipid scramblase (Homo sapiens, UniProt Q4KMQ2); assay: Ionomycin-induced PS externalization; assay type: cell-based
T4 sequence (Q4KMQ2 1-931 isoform Q4KMQ2-2): T1 sequence (Q4KMQ2 1-931 isoform Q4KMQ2-2)

cytosolic Ca2+ signals [2] = assay: Ionomycin-induced cytosolic Ca2+ signals; assay type: cell-based
human WT-CFTR = assay: CFTR short-circuit current in FRT-CFTR cells; assay type: cell-based; conditions: up to a 30-μM concentration
HeLa-ACE2 cells [3] = assay: SARS2-PsV-induced PS externalization in HeLa-ACE2 cells; assay type: cell-based; conditions: for SARS2-PsV-induced PS externalization: 1 h; for PS externalization evoked by trypsin-pretreated SARS2-PsV: trypsin 10 μg/mL, 10 min, 37°C
HeLa-ACE2 cells [4] = assay: SARS2-PsV-induced multinucleated cell formation; assay type: cell-based; conditions: SARS2-PsV 30 min
[5] = tested on: CHO-Spike / HEK 293T-ACE2-TMPRSS2 cells; assay type: cell-based; conditions: 10 μM
[6] = tested on: HEK 293T-ACE2-TMPRSS2 cells; assay: SARS2-PsV-induced cytosolic Ca2+ signals; assay type: cell-based; conditions: pretreatment: BAPTA-AM 3 μM, camostat 10 μM, A6-001 10 μM
[7] = tested on: HEK 293T-ACE2-TMPRSS2 cells; assay type: cell-based; conditions: 10 μM, ATP 100 μM
Calu-3 cells [8] = assay: ATP-induced Ca2+ response in Calu-3 cells; assay type: cell-based, human; conditions: 10 μM, ATP 100 μM
[9] = tested on: SARS-CoV-2 Spike pseudotyped virus (SARS2-PsV); assay: microbe, parasite or virus in culture; assay type: cell-based; conditions: for single-round infection of SARS2-PsV: BAPTA-AM 10 μM
SARS-CoV-2 [10] = assay: Viral replication of authentic SARS-CoV-2 in Calu-3 cells; assay type: cell-based
SARS-CoV-2 [11] = assay: Viral replication of authentic SARS-CoV-2 in Vero cells; assay type: cell-based; conditions: for IC50: read-out: IC50, viral replication, Vero, supernatant
SARS-CoV-2 [12] = assay: Viral replication of SARS-CoV-2 in primary human nasal epithelial; assay type: cell-based; conditions: 10 μM basolateral, 72 h, HNE
[13] = tested on: recombinant eGFP adenovirus (Ad-eGFP); assay: Adenovirus; assay type: cell-based; conditions: 10 μM; 1 MOI; 48 h; HEK 293T
Calu-3 cells [14] = assay: Cell viability MTS assay, Calu-3 cells; assay type: cell-based, human; conditions: Calu-3 and Vero cells
SARS-CoV-2 [15] = assay: Cellular viral RNAs by qPCR at 4 h post-infection in Vero cells; assay type: cell-based; conditions: 0.01 MOI
human ANO1 = assay: YFP quenching anion channel assay, FRT-ANO1 cells
hANO6 = conditions: 10 μM
[16] = tested on: endogenous Cl- currents in HEK 293 cells; conditions: ref Braga et al., 2021; cited from earlier work
cytosolic Ca2+ signals [17] = conditions: ref Braga et al., 2021; cited from earlier work
HeLa-ACE2 cells [18] = assay: Authentic SARS-CoV-2-induced PS externalization in HeLa-ACE2 cells; assay type: cell-based; conditions: 10 μM; 1 h pretreatment; 10 MOI
[19] = tested on: PS scrambling induced by ionomycin; assay: Ionomycin-induced PS scrambling, camostat control; assay type: cell-based; conditions: camostat 100 μM, 1 h prior; ionomycin 10 μM, 10 min
SARS-CoV-2 [20] = conditions: HeLa-ACE2 cells; ref Shang et al., 2020; cited from earlier work
[21] = 10 μM during infection and 4 h post-infection
[22] = 10 μM during the infection period alone

## O=C(NCc1ccc(F)cc1)c1cccc(Nc2ccc(-c3ccccc3)nn2)c1 [A6-001, N-(4-fluorobenzyl)-3-((6-phenylpyridazin-3-yl)amino)benzamide]
Human ANO6; half-maximal inhibitory concentration [IC50], ANO6 ion channel, FRT-ANO6 cells, 10 μM ionomycin
  IC50: 90 nM
Human ANO2
  ANO6 selectivity against ANO2: 90 fold
ANO6 (TMEM16F)
  IC50: 70 nM
[1]
  IC50: 910 nM
[1]; 10 μM, FRT-ANO6 cells
  ionomycin-induced PS externalization: most effective
[1]; larger
  scramblase IC50 relative to that for ANO6 ion channel activity: approximately 10 fold
Cytosolic Ca2+ signals [2]; up to 30 μM
  ionomycin-induced cytosolic Ca2+ signals: did not affect
Human WT-CFTR
  CFTR currents: did not affect
HeLa-ACE2 cells [3]; 10 μM
  SARS2-PsV-induced PS externalization: strongly inhibited; also recorded: inhibit
HeLa-ACE2 cells [3]
  PS externalization evoked by trypsin-pretreated SARS2-PsV: inhibits
HeLa-ACE2 cells [4]
  multinucleated cell formation: inhibits; also recorded: significantly reduced
[5]; 8-h time-lapse
  membrane-fusion events: abolishes; also recorded: profoundly reduced
[5]; Video S3
  initial lipid-mixing event and cell-cell fusion: eliminated
[5]; initial 1 h
  cell-cell adhesion: does not affect; also recorded: not affecting
[6]
  SARS2-PsV-induced cytosolic Ca2+ signals: did not affect
[7]
  purinergic agonist (ATP)-induced Ca2+ response: did not alter
Calu-3 cells [8]
  purinergic agonist (ATP)-induced Ca2+ response: did not alter
[9]
  cellular viral reduction, pseudotyped virus: 78%
  single-round infection of SARS2-PsV: dose dependently inhibited
[9]; Severe acute respiratory syndrome coronavirus 2, read-out: IC50, single-round infection
  IC50: 420 nM
SARS-CoV-2 [10]; 10 μM, 48 h, […], Calu-3
  viral reduction, qPCR: 1/50
  ΔCt: −13.5
SARS-CoV-2 [10]; Severe acute respiratory syndrome coronavirus 2, Calu-3, 48 h, read-out: IC50, viral replication
  IC50: 970 nM
SARS-CoV-2 [11]; 10 μM, 48 h, Vero
  viral reduction, plaque assay: 1/500
  viral reduction, qPCR: 1/150
  ΔCt: −11.8
SARS-CoV-2 [11]; Severe acute respiratory syndrome coronavirus 2, Vero, 48 h
  IC50: 930 nM
SARS-CoV-2 [11]; Vero, 48 h, light microscopy
  virus-induced cytolysis: dose dependently reduced
SARS-CoV-2 [11]
  IC50: 740 nM
SARS-CoV-2 [12]
  average reduction in viral replications, plaque assay: 94%
[13]
  replications of the non-enveloped adenovirus: did not affect
Calu-3 cells [14]
  safety margin: > 100
SARS-CoV-2 [15]; [21]
  reduction in cellular viral RNAs: 98%
  ΔΔCt, cellular viral RNA: 5.58
SARS-CoV-2 [15]; [22]
  cellular viral reduction, authentic virus: 86%
  ΔΔCt, cellular viral RNA: 2.84
Human ANO1
  ANO6 selectivity against ANO1: 460 fold
hANO6; Jurkat-ANO6
  ionomycin-induced increase in Lact-C2-positive, PI-negative cell population (Q3): reversed
hANO6; Jurkat
  ionomycin-induced increase in Lact-C2-positive, PI-negative cell population (Q3): reversed

## CC[C@@H](C(=O)[C@@H](C)[C@@H](O)[C@H](C)[C@@H]1O[C@@H]([C@@H](CC)C(=O)O)CC[C@@H]1C)[C@H]1O[C@]2(C=C[C@@H](O)[C@]3(CC[C@@](C)([C@H]4CC[C@](O)(CC)[C@H](C)O4)O3)O2)[C@H](C)C[C@@H]1C [salinomycin]
[16]
  endogenous Cl- currents / Cl- channel activities: did not affect

## O=C(Nc1ccc([N+](=O)[O-])cc1Cl)c1cc(Cl)ccc1O [niclosamide]
[16]
  endogenous Cl- currents / Cl- channel activities: partial inhibitory effect
Cytosolic Ca2+ signals [17]
  cytosolic Ca2+ signals: reduced

## CC(=O)OCOC(=O)CN(CC(=O)OCOC(C)=O)c1ccccc1OCCOc1ccccc1N(CC(=O)OCOC(C)=O)CC(=O)OCOC(C)=O [BAPTA-AM, reference compound]
HeLa-ACE2 cells [3]; 10 μM
  SARS2-PsV-induced PS externalization: nullified; also recorded: inhibits
HeLa-ACE2 cells [18]
  authentic SARS-CoV-2 virus-evoked PS scrambling: suppressed
[6]
  SARS2-PsV-induced cytosolic Ca2+ signals: nullified
[9]
  single-round infection of SARS2-PsV: significantly reduced

## CCOC(=O)c1c(NCc2ccc(SC)cc2)c2cccc(C)c2[nH]c1=O [A6-004, ethyl 8-methyl-4-((4-(methylthio)benzyl)amino)-2-oxo-1,2-dihydroquinoline-3-carboxylate]
Human ANO6; ANO1, ANO2 and ANO6
  IC50 on all examined ANOs: micromolar ranges
Cytosolic Ca2+ signals [2]; at 30 μM
  ionomycin-induced cytosolic Ca2+ signals: partially reduced
HeLa-ACE2 cells [3]; 10 μM
  SARS2-PsV-induced PS externalization: strongly inhibited; also recorded: inhibit

## CC(C)/N=c1\cc2n(-c3ccc(Cl)cc3)c3ccccc3nc-2cc1Nc1ccc(Cl)cc1 [clofazimine]
[16]
  endogenous Cl- currents / Cl- channel activities: did not affect

## CN(C)C(=O)COC(=O)Cc1ccc(OC(=O)c2ccc(NC(=N)N)cc2)cc1 [camostat, camostat mesylate, reference compound]
HeLa-ACE2 cells [3]; 100 μM
  SARS2-PsV-induced PS externalization: reduced; also recorded: inhibits
HeLa-ACE2 cells [3]
  PS externalization evoked by trypsin-pretreated SARS2-PsV: but not by trypsinized SARS2-PsV
[6]
  SARS2-PsV-induced cytosolic Ca2+ signals: significantly reduced
[19]
  PS scrambling induced by ionomycin: did not affect
SARS-CoV-2 [20]
  SARS-CoV-2 cell entry: inhibits
